Laboratory results taken from patent US20230226214A1, “BIFUNCTIONAL BRIDGING COMPOSITIONS FOR VIRAL TRANSDUCTION” (Lycia Therapeutics, Inc., priority 2020, published 2023).

B1: Compound I-11d4: "matuzumab-Compound I-11 (d4)" conjugate tested for M6PR binding (conjugate)
heavy: QVQLVQSGAEVKKPGASVKVSCKASGYTFTSHWMHWVRQAPGQGLEWIGEFNPSNGRTNYNEKFKSKATMTVDTSTNTAYMELSSLRSEDTAVYYCASRDYDYAGRYFDYWGQGTLVTVSSASTKGPSVFPLAPSSKSTSGGTAALGCLVKDYFPEPVTVSWNSGALTSGVHTFPAVLQSSGLYSLSSVVTVPSSSLGTQTYICNVNHKPSNTKVDKKVEPKS
light: DIQMTQSPSSLSASVGDRVTITCSASSSVTYMYWYQQKPGKAPKLLIYDTSNLASGVPSRFSGSGSGTDYTFTISSLQPEDIATYYCQQWSSHIFTFGQGTKVEIKRTVAAPSVFIFPPSDEQLKSGTASVVCLLNNFYPREAKVQWKVDNALQSGNSQESVTEQDSKDSTYSLSSTLTLSKADYEKHKVYACEVTHQGLSSPVTKSFNRGE
modifications: left off: a dimerising Fc or GST

How the values were obtained:
human Jurkat cells = assay: Uptake of IgG2a-Alexa488 mediated by anti-IgG2a conjugates (flow cytometry); format: cell-based; conditions: 1 h and 24 h
Description: The anti-IgG2a conjugates were bound to IgG2a-Alexa488, as follows: equal molar ratios of anti-IgG2a and IgG2a-Alexa488 were added in tissue culture media for 30 minutes at room temperature. The resulting anti-IgG2a:IgG2a antibody-Alexa488 compositions were added to human Jurkat cells (100 k cells/50 ul per well, n=2), and Alexa488 fluorescence levels were measured (via Alexa488 measurement) at 1 hour and 24 hours by flow cytometry. Because Alexa488 accumulates in cells, this presents a way to measure total intracellular uptake by cells over time.

[1] = target: T1, recombinant human CI-M6PR protein (Homo sapiens, UniProt P11717); assay: M6PR binding ELISA of matuzumab conjugates; conditions: antibody conjugates of the ligand-linkers
T1 construct: purchased R&D 6418-GR-050
T1 sequence (P11717 41-1365 limits assumed): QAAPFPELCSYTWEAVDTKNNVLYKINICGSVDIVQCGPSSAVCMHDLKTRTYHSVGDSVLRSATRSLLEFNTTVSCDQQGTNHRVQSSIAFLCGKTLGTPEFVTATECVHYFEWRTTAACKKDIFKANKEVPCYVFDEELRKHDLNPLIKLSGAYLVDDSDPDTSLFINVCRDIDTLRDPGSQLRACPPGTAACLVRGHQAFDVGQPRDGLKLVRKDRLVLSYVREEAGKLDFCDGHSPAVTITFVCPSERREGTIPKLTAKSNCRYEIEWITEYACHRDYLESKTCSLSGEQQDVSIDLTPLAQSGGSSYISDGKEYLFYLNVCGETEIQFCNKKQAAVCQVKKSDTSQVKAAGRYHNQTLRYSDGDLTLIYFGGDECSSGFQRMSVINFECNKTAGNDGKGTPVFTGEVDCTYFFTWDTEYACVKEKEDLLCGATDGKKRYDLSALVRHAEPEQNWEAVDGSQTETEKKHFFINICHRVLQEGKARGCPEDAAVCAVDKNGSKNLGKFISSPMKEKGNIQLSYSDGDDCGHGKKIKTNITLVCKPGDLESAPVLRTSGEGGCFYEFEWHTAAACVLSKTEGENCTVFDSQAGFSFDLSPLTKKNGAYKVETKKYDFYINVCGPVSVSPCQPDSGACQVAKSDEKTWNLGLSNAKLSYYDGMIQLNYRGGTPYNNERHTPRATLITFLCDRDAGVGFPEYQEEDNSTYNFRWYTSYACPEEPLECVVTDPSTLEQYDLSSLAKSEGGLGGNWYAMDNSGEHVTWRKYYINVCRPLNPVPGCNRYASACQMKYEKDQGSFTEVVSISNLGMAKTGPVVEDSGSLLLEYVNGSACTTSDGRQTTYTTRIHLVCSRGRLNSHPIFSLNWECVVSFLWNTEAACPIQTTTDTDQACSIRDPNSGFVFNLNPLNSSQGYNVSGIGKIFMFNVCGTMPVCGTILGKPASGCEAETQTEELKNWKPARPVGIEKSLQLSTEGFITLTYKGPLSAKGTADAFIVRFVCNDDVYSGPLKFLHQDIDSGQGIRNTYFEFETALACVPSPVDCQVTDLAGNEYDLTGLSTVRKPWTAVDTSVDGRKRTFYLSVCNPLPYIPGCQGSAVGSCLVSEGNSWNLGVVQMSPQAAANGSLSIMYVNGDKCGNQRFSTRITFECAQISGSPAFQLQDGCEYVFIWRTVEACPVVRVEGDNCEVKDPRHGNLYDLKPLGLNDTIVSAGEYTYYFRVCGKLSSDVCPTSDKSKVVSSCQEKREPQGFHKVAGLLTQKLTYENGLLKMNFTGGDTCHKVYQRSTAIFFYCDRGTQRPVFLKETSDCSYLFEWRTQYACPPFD
Description: Binding affinity of matuzumab conjugated to ligand-linkers for M6PR was determined by ELISA using the following protocol: Nunc black solid bottom MaxiSorp plates were allowed to incubate overnight at 4° C. coated with 1 μg/mL of recombinant human CI-M6PR protein (R&D, 6418-GR-050) in 50 μL PBS. The next day, coating was decanted and plates were washed 3× with PBS. Wells were blocked with 350 μL of 3% BSA-PBS for 1 hour at room temperature. […] 50 μL of diluted conjugates were added to the plate and allowed to incubate at room temperature for 2 hours. After incubation, solutions in plate were decanted and washed with 350 μL of 0.05% PBS-Tween20 three times, drying the plate each wash on a clean paper towel. 50 μL of peroxidase AffiniPure Mouse Anti-Human IgG (Jackson Immuno, 209-035-088) diluted in 3% BSA-PBS to 0.2 μg/mL was added to the plate and allowed to incubate for 1 hour at room temperature in the dark. After incubation, solutions in plate were decanted and washed with 350 μL of 0.05% PBS-Tween20 3 times, drying the plate each wash on a clean paper towel. […] 50 μL of QuantaBlu solution was added to wells and allowed to incubate for 5-10 minutes at room temperature. After incubation, plates were read on a Perkin Elmer EnVision using photometric 340 and Umbelliferone 460 filter sets for excitation and emission, respectively. Data analysis and non-linear curve-fitting was performed using GraphPad Prism.

[2] = mice, intravenous, 10 μg/mouse; serum rIgG1 at 0.5-24 hours; compared with Compound I-7 conjugate
Description: A pharmacokinetic analysis of the rIgG1 (anti-IgG2a) antibody conjugates described in the previous example was performed in mice. In particular, C57B6 mice were intravenously administered each rIgG1 antibody conjugate at 10 μg/mouse (5 mice per group). Blood was collected at 0.5, 1, 2, 6, and 24 hours and serum rIgG1 was analyzed using an ELISA kit (Abcam) according to the manufacturer's instructions. Samples were run across 3 different plates with unconjugated rIgG1 controls (UNLB-anti-IgG2a rIgG1) included on all 3 plates.

human HepG2 cells = assay: Transduction efficiency of AAV8 particle conjugates in HepG2 cells (GFP); format: cell-based; conditions: increasing MOI, 72 hrs, compared with unconjugated AAV8
Description: Transduction efficiency of AAV8 particle conjugates was also measured in human HepG2 cells and compared to that of an unconjugated AAV-CMV-GFP control (“AAV8 GFP-UNLB”). HepG2 cells were transduced with increasing multiplicity of infection (MOI) of unconjugated AAV8, AAV8 conjugated to Compound I-7 (ITX-16590), and AAV conjugated to Compound I-124 (ITX-22701) or different molar rations of AAV8 conjugated to Compound I-124 (ITX-22701).
In performing the experiments described above, 2V6·11 cells (Elab Science) in DMEM (Gibco) with 10% fetal bovine serum (Gibco) were seeded onto 96-well plates (Nunc) at a concentration of 20 k cells/well 24 hours prior to infection. Jurkat cells (ATCC) in RPMI (Gibco) with 10% fetal bovine serum (Gibco) were seeded onto 96-well plates (Nunc) 1 h prior to transduction. HepG2 cells (ATCC) in EMEM (Gibco) with 10% fetal bovine serum (Gibco) were seeded onto 96-well plates (Nunc) 24 hours prior to infection. […]
After the incubation period, the medium was aspirated, the cells were washed with PBS and analyzed for GFP expression via flow cytometry on BioRad ZES Cell Analyzer (BioRad) or analyzed for luciferase levels using a luciferase assay kit (Promega) following manufacture's protocol and using a luminometer.

Molecule	intracellular uptake (Alexa488 fluorescence) (human Jurkat cells)	binding affinity for M6PR [1]	half-life in serum [2]	transduction efficiency (percentage of GFP positive cells, MFI) (human HepG2 cells)
O=C(CCOCCOCCOCCOCCOCCOCCOCCOCCn1cc(CCO[C@H]2O[C@H](CCP(=O)(O)O)[C@@H](O)[C@H](O)[C@@H]2O)nn1)Oc1c(F)c(F)c(F)c(F)c1F [Compound I-9]	sufficiently robust uptake			
O=C(CCN1C(=O)C=CC1=O)NCCOCCOCCOCCn1cc(CCO[C@H]2O[C@H](CCP(=O)(O)O)[C@@H](O)[C@H](O)[C@@H]2O)nn1 [Compound I-10]		weaker binding affinity to M6PR compared to Compound I-7	longer half-life	
O=C(CCOCCn1cc(CCO[C@H]2O[C@H](CCP(=O)(O)O)[C@@H](O)[C@H](O)[C@@H]2O)nn1)Oc1c(F)c(F)c(F)c(F)c1F [Compound I-11]	sufficiently robust uptake	weaker binding affinity to M6PR compared to Compound I-7	longer half-life	
O=C(CCOCCOCCOCCN(CCOCCOCCOCCn1cc(CCO[C@H]2O[C@H](CCP(=O)(O)O)[C@@H](O)[C@H](O)[C@@H]2O)nn1)CCOCCOCCOCCn1cc(CCO[C@H]2O[C@H](CCP(=O)(O)O)[C@@H](O)[C@H](O)[C@@H]2O)nn1)Oc1c(F)c(F)c(F)c(F)c1F [Compound I-12]	sufficiently robust uptake	weaker binding affinity to M6PR compared to Compound I-7	longer half-life	
CC(=O)N[C@H]1[C@H](OCCCCC(=O)NCCCNC(=O)CCOCC(COCCC(=O)NCCCNC(=O)CCCCO[C@@H]2O[C@H](CO)[C@H](O)[C@H](O)[C@H]2NC(C)=O)(COCCC(=O)NCCCNC(=O)CCCCO[C@@H]2O[C@H](CO)[C@H](O)[C@H](O)[C@H]2NC(C)=O)NC(=O)CCCCCCCCCCC(=O)Oc2c(F)c(F)c(F)c(F)c2F)O[C@H](CO)[C@H](O)[C@@H]1O [Compound I-124]				greater transduction efficiency than unconjugated AAV8
B1		lowest		
